Data from patent publication US7968535B2, “Use of azapaullones for preventing and treating pancreatic autoimmune disorders” (Develogen Atkiengesellschaft, priority 2005, dated 2011).

Tests used:
INS-1E cells = assay: DNA-fragmentation ELISA in glucose/palmitate stressed cells; assay type: cell-based, rat; settings: 2.5 μM, glucose/palmitate 24 hours
Method: The effects of the substance on cell viability, cell growth and specific apoptotic events such as caspases activity and DNA-fragmentation was monitored. INS-1E cell apoptosis was induced by treatment of cell cultures with toxic concentrations of glucose and palmitate for 24 hours. The substance of interest was added to the medium 1 hour prior to the addition of the toxic agents.
DNA-fragmentation is a comparatively late apoptotic event comprising storage of nucleosomal DNA-fragments as mono- and oligo nucleosomes in the cytoplasm. The incubation of INS1-E cells with high concentrations of glucose and palmitate for 24 hours leads to DNA breakdown and the accumulation of nucleosomal DNA fragments in the cytoplasm. The detectable amount of cytosolic nucleosomal DNA fragments was reduced by about 17%, when cells were treated with the apoptosis inducing agents in combination with 10 μM 4-AKP.
10,000 Ins-1E cells were seeded per 96-well (black 96-well tissue culture plates, Falcon #353948) in 100 μl culture medium (RPMI 1640 containing 11 mM glucose, 5% FCS, 10 mM HEPES, 50 μM 2-mercaptoethanol, 1 mM MEM sodium pyruvate, 100 U/ml penicillin, 100 μg/ml streptomycin) and cultivated at 37° C., 5% CO2 in humidified atmosphere for 3 days. Media was changed to 100 μl starvation medium (culture medium with only 5 mM glucose, 1% FCS) and the cells were re-incubated for 1 day. Then media was exchanged to starvation medium containing test substances.
Apoptosis of Ins-1E cells was induced by addition of a combination of BSA coupled palmitate and glucose (pal/gluc) or a combination of cytokines (cyt) 1 hour after starting the treatment with test substances: pal/gluc: 0.3 mM palmitate:BSA (palmitic acid sodium salt:fatty acid free BSA 6:1) and 25 mM glucose. 10×cyt: 0.04 ng/ml IL-1β and 1 ng/ml IFNγ. The cells were further incubated with test substances and apoptotic inducer for 24 hours.
DNA-fragmentation is a late apoptotic event comprising storage of nucleosomal DNA-fragments as mono- and oligo nucleosomes in the cytoplasm. Their concentration was determined by ELISA (Cell death detection ELISA, Roche, cat. No. 1774425) according to the manufacturers guidelines.

Pax4 gene = assay: Pax4 transcription by quantitative real time RT-PCR; assay type: cell-based, rat
Method: FIG. 11 illustrates a representative experiment in which the relative Pax4 levels were quantified using quantitative real time RT-PCR. […] Data are presented as relative levels to the basal Pax4 expression level in INS-1E cells only treated with the vehicle (Co.). Activin-A (1 nM) treated INS-1E cells serve as a positive control.
The response of the Pax4 gene to test compounds was investigated in the rat insulinoma cell line INS-1E. INS-1E cells are known to express Pax4 and to upregulate Pax4 levels in response to the treatment with activin-A and betacellulin. In the search for novel beta cell mitogens and/or beta cell protective agents the inventors treated INS-1E cells with test compound 10c. Compound 10c induces the relative Pax4 expression about 5-fold compared to the control and compared to 1 nM activin A (FIG. 11).
INS-1E cells were cultured as described (Merglen, (2004) Endocrinology; 145: 667-678). Cells were seeded at a density of 2×10^4 cells per cm^2 6 to 8 days before the treatment with chemicals. During the growth period the medium was changed once. […]
Total RNA from 8×10^4 cells growing on 4 cm^2 surface area of a tissue culture dish was extracted using Qiagen RNAeasy kit according to the instructions of the manufacturer (Qiagen) and 2 μg was converted into cDNA. […] Quantitative real-time PCR was performed using Applied Biosystems SDS 7000 detection system. […]

## N#Cc1ccc2[nH]c3c(c2c1)CC(=O)Nc1cccnc1-3 [Compound 10c, 6-Oxo-5,6,7,12-tetrahydropyrido[3′,2′:2,3]azepino[4,5-b]indole-9-carbonitrile]
INS-1E cells
  reduction of cytosolic DNA-fragments: 74%
Pax4 gene; 2 μM
  Pax4 gene transcription: transiently induce Pax4 gene transcription
Pax4 gene; INS-1E cells, vehicle control
  relative Pax4 expression compared to the control: about 5 fold
